Target: T1, Thymidine phosphorylase (Homo sapiens, UniProt P19971)
T1 sequence (P19971 whole entry): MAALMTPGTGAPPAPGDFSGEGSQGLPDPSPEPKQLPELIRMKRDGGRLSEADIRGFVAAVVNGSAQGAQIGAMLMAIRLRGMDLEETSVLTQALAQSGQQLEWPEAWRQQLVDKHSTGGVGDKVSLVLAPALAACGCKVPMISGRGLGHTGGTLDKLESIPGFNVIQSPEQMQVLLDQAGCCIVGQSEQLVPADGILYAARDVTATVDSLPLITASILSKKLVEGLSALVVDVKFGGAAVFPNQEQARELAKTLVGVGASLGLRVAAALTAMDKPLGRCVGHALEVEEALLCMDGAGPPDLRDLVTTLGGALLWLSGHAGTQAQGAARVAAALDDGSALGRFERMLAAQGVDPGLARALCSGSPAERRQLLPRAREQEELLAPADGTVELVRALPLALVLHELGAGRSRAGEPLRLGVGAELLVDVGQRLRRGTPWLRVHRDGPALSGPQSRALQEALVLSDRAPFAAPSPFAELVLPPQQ
Description: Inhibition of human TPase in presence of 100 uM thymidine

Row | IC50 [µM] | SMILES
1 | > 20 | COCCOCn1cnc2c(ncn2[C@@H]2O[C@H](COC(c3ccccc3)(c3ccccc3)c3ccccc3)[C@@H](OC(C)=O)[C@H]2OC(C)=O)c1=O
2 | > 75 | COCCOCNC(=O)c1ncn([C@@H]2O[C@H](COC(c3ccccc3)(c3ccccc3)c3ccccc3)[C@@H](O)[C@H]2O)c1N
3 | 137 | CNC(=O)c1ncn([C@@H]2O[C@H](COC(c3ccccc3)(c3ccccc3)c3ccccc3)[C@@H](O)[C@H]2O)c1N
4 | > 100 | COCCOCn1cnc2c(ncn2[C@@H]2O[C@H](COC(c3ccccc3)(c3ccccc3)c3ccccc3)[C@@H](O)[C@H]2O)c1=O
5 | > 200 | O=c1c2ncn([C@@H]3O[C@H](COCc4ccccc4)[C@@H](O)[C@H]3O)c2ncn1Cc1ccccc1
6 | ≥ 40 | NC(=O)c1ncn([C@@H]2O[C@H](COC(c3ccccc3)(c3ccccc3)c3ccccc3)[C@@H](O)[C@H]2O)c1N
7 | > 200 | OC[C@@H](COC(c1ccccc1)(c1ccccc1)c1ccccc1)O[C@H](CO)n1cnc2c(O)ncnc21

From ChEMBL document CHEMBL1146883, “5'-O-tritylinosine and analogues as allosteric inhibitors of human thymidine phosphorylase” (J Med Chem, 2006)
